Measured values taken from ChEMBL document CHEMBL5360620, “Diphenyl Ether Derivative Rhexocerins and Rhexocercosporins from the Endophytic Fungus Rhexocercosporidium sp. Dzf14 Active against Gram-Positive Bacteria with Multidrug-Resistance” (J Nat Prod, 2023).
Values after ≈ are worked out from the molar mass of the structure shown.

Legend:
HGC-27 = test: Cytotoxicity against human HGC-27 cells by MTT assay; type: toxicity, cell-based
HCT-8 = test: Cytotoxicity against human HCT-8 cells by MTT assay; type: toxicity, cell-based
Pseudomonas aeruginosa = test: Antibacterial activity against wild-type Pseudomonas aeruginosa PAO1 incubated for 18 hrs by broth microdilution method; type: functional
HepG2 = test: Cytotoxicity against human HepG2 cells by MTT assay; type: toxicity, cell-based
Enterococcus faecalis = test: Antibacterial activity against vancomycin-resistant Enterococcus faecalis 10 incubated for 18 hrs by broth microdilution method; type: functional
Escherichia coli = test: Antibacterial activity against multi-drug resistant Escherichia coli B2 clinical isolate incubated for 18 hrs by broth microdilution method; type: functional
PANC-1 = test: Cytotoxicity against human PANC-1 cells by MTT assay; type: toxicity, cell-based
Staphylococcus aureus = test: Antibacterial activity against methicillin-resistant Staphylococcus aureus T144 incubated for 18 hrs by broth microdilution method; type: functional
PC-9 = test: Cytotoxicity against human PC-9 cells by MTT assay; type: toxicity, cell-based

With `CC(C)=C[C@H]1c2c(O)cc(C)cc2Oc2cc(O)c(C(=O)O)c(C)c21` the Activity (HGC-27) was “Non-Toxic”, the Activity (HCT-8) was “Non-Toxic” and the MIC (Pseudomonas aeruginosa) was over 32 µg/mL. For the same compound, the Activity (HepG2) was “Non-Toxic”, the MIC (Enterococcus faecalis) was 16 µg/mL (≈ 47 µM) and the MIC (Escherichia coli) was over 32 µg/mL. The Activity (PANC-1) was “Non-Toxic”, the MIC (Staphylococcus aureus) was 16 µg/mL (≈ 47 µM) and the Activity (PC-9) was “Non-Toxic”.
With `COC(=O)c1c(OC)cc2c(c1C)[C@@H](C=C(C)C)C1=C(O2)C(=O)C(C)=CC1=O` the Activity (HGC-27) was “Non-Toxic”, the Activity (HCT-8) was “Non-Toxic” and the MIC (Pseudomonas aeruginosa) was over 32 µg/mL. For the same compound, the Activity (HepG2) was “Non-Toxic”, the MIC (Enterococcus faecalis) was 8 µg/mL (≈ 20.9 µM) and the MIC (Escherichia coli) was over 32 µg/mL. The Activity (PANC-1) was “Non-Toxic”, the MIC (Staphylococcus aureus) was 32 µg/mL (≈ 83.7 µM) and the Activity (PC-9) was “Non-Toxic”.
`COC(=O)c1c(OC)cc2c(c1C)[C@@H](C=C(C)C)c1c(O)cc(C)cc1O2` was tested, and the Activity (HGC-27) was “Non-Toxic”, the Activity (HCT-8) was “Non-Toxic” and the MIC (Pseudomonas aeruginosa) was over 32 µg/mL. For the same compound, the Activity (HepG2) was “Non-Toxic”, the MIC (Enterococcus faecalis) was 4 µg/mL (≈ 10.9 µM) and the MIC (Escherichia coli) was over 32 µg/mL. For the same compound, the Activity (PANC-1) was “Non-Toxic”, the MIC (Staphylococcus aureus) was 4 µg/mL (≈ 10.9 µM) and the Activity (PC-9) was “Non-Toxic”.
`COC(=O)c1c(OC)cc2c(c1C)[C@@H](C=C(C)C)c1c(O)cc(C)c(OC)c1O2` was tested, and the Activity (HGC-27) was “Non-Toxic”, the Activity (HCT-8) was “Non-Toxic” and the Activity (HepG2) was “Non-Toxic”. For the same compound, the Activity (PANC-1) was “Non-Toxic” and the Activity (PC-9) was “Non-Toxic”.
`COC(=O)c1c(OC)cc2c(c1C)[C@H](O)[C@H]1c3c(cc(C)c(O)c3O2)OC1(C)C` was tested, and the Activity (HGC-27) was “Non-Toxic”, the Activity (HCT-8) was “Non-Toxic” and the Activity (HepG2) was “Non-Toxic”. The Activity (PANC-1) was “Non-Toxic” and the Activity (PC-9) was “Non-Toxic”.
In the case of COLISTIN, the MIC (Pseudomonas aeruginosa) was 0.13 µg/mL and the MIC (Escherichia coli) was 2 µg/mL.
`COC(=O)c1c(OC)cc2c(c1C)C=C1c3c(cc(C)c(O)c3O2)OC1(C)C` was tested, and the Activity (HGC-27) was “Non-Toxic”, the Activity (HCT-8) was “Non-Toxic” and the Activity (HepG2) was “Non-Toxic”. The Activity (PANC-1) was “Non-Toxic” and the Activity (PC-9) was “Non-Toxic”.
`CN[C@H](CC(C)C)C(=O)N[C@H]1C(=O)N[C@@H](CC(N)=O)C(=O)N[C@H]2C(=O)N[C@H]3C(=O)N[C@H](C(=O)N[C@H](C(=O)O)c4cc(O)cc(O)c4-c4cc3ccc4O)[C@H](O)c3ccc(c(Cl)c3)Oc3cc2cc(c3O[C@@H]2O[C@H](CO)[C@@H](O)[C@H](O)[C@H]2O[C@H]2C[C@](C)(N)[C@H](O)[C@H](C)O2)Oc2ccc(cc2Cl)[C@H]1O` [VANCOMYCIN] gave an MIC (Enterococcus faecalis) of over 128 µg/mL.
For `COC(=O)c1c(O)cc2c(c1C)[C@@H](C=C(C)C)c1c(O)cc(C)cc1O2`, the Activity (HGC-27) was “Non-Toxic”, the Activity (HCT-8) was “Non-Toxic” and the MIC (Pseudomonas aeruginosa) was over 32 µg/mL. The Activity (HepG2) was “Non-Toxic”, the MIC (Enterococcus faecalis) was 8 µg/mL (≈ 22.6 µM) and the MIC (Escherichia coli) was over 32 µg/mL. For the same compound, the Activity (PANC-1) was “Non-Toxic”, the MIC (Staphylococcus aureus) was 16 µg/mL (≈ 45.1 µM) and the Activity (PC-9) was “Non-Toxic”.
In the case of `COC(=O)c1c(O)cc2c(c1C)C=C1c3c(cc(C)c(O)c3O2)OC1(C)C`, the Activity (HGC-27) was “Non-Toxic”, the Activity (HCT-8) was “Non-Toxic” and the MIC (Pseudomonas aeruginosa) was over 32 µg/mL. For the same compound, the Activity (HepG2) was “Non-Toxic”, the MIC (Enterococcus faecalis) was 16 µg/mL (≈ 43.4 µM) and the MIC (Escherichia coli) was over 32 µg/mL. For the same compound, the Activity (PANC-1) was “Non-Toxic”, the MIC (Staphylococcus aureus) was 16 µg/mL (≈ 43.4 µM) and the Activity (PC-9) was “Non-Toxic”.
`COC(=O)c1c(OC)cc2c(c1C)[C@H](OC)[C@H]1c3c(cc(C)c(O)c3O2)OC1(C)C` was tested, and the Activity (HGC-27) was “Non-Toxic”, the Activity (HCT-8) was “Non-Toxic” and the Activity (HepG2) was “Non-Toxic”. For the same compound, the Activity (PANC-1) was “Non-Toxic” and the Activity (PC-9) was “Non-Toxic”.
`COC(=O)c1c(O)cc2c(c1C)[C@@H](C=C(C)C)C1=C(O2)C(=O)C(C)=CC1=O` was tested, and the Activity (HGC-27) was “Non-Toxic”, the Activity (HCT-8) was “Non-Toxic” and the MIC (Pseudomonas aeruginosa) was over 32 µg/mL. For the same compound, the Activity (HepG2) was “Non-Toxic”, the MIC (Enterococcus faecalis) was 8 µg/mL (≈ 21.7 µM) and the MIC (Escherichia coli) was over 32 µg/mL. For the same compound, the Activity (PANC-1) was “Non-Toxic”, the MIC (Staphylococcus aureus) was over 32 µg/mL and the Activity (PC-9) was “Non-Toxic”.
